pIC50: −log10 of the molar value. A value given as a limit tells only on which side of the number the result lay.

Here are results for one compound from ChEMBL document CHEMBL5715936, “Selective Itk inhibitors block T-cell activation and murine lung inflammation” (Biochemistry, 2004).

In experiment [1] the target is T1, Tyrosine-protein kinase TXK (Homo sapiens, UniProt P42681).
T1 sequence (P42681 whole entry): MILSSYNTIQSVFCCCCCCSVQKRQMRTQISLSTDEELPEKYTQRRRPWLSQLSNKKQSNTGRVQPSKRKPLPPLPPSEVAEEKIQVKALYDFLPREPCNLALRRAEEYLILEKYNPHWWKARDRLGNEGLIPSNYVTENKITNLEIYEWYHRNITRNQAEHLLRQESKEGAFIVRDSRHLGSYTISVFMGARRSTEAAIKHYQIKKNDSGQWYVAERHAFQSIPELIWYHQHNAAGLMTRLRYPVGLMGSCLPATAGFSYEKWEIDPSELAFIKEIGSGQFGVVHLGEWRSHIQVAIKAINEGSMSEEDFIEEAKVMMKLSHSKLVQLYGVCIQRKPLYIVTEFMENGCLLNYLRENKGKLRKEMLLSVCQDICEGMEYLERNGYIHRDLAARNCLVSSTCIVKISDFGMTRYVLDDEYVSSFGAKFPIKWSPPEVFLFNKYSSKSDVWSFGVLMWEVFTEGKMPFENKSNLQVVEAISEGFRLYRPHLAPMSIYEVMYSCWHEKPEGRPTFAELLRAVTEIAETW
In words: Inhibition of Txk (unknown origin) using GST-SLP-76 as peptide substrate incubated for 10 mins in presence of [gamma-33P]ATP by scintillation counter assay.

Experiment [2] addresses T2, Tyrosine-protein kinase Tec (Homo sapiens, UniProt P42680).
T2 sequence (P42680 whole entry): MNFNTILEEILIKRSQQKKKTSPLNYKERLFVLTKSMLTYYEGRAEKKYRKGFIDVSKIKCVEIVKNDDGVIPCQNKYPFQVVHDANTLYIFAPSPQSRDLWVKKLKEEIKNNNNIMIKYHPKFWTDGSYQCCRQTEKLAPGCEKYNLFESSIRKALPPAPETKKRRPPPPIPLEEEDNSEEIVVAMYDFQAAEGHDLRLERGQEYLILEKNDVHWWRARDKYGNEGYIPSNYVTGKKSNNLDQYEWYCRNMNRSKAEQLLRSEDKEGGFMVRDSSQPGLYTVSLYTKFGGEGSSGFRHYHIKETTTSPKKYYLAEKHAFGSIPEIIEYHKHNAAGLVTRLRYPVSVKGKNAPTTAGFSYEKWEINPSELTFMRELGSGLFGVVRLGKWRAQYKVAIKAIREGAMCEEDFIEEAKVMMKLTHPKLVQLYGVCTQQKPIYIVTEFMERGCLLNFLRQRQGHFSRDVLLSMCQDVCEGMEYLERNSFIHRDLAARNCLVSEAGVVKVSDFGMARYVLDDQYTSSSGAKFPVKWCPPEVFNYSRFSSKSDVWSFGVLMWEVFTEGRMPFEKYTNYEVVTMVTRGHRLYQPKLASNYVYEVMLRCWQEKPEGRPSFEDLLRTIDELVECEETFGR
In words: Inhibition of Tec (unknown origin) using GST-SLP-76 as peptide substrate incubated for 10 mins in presence of [gamma-33P]ATP by scintillation counter assay.

The target in experiment [3] is Tyrosine-protein kinase BTK (Homo sapiens, UniProt Q06187). In words: Inhibition of Btk (unknown origin) using GST-SLP-76 as peptide substrate incubated for 10 mins in presence of [gamma-33P]ATP by scintillation counter assay.
Tyrosine-protein kinase BTK, sequence (Q06187 whole entry): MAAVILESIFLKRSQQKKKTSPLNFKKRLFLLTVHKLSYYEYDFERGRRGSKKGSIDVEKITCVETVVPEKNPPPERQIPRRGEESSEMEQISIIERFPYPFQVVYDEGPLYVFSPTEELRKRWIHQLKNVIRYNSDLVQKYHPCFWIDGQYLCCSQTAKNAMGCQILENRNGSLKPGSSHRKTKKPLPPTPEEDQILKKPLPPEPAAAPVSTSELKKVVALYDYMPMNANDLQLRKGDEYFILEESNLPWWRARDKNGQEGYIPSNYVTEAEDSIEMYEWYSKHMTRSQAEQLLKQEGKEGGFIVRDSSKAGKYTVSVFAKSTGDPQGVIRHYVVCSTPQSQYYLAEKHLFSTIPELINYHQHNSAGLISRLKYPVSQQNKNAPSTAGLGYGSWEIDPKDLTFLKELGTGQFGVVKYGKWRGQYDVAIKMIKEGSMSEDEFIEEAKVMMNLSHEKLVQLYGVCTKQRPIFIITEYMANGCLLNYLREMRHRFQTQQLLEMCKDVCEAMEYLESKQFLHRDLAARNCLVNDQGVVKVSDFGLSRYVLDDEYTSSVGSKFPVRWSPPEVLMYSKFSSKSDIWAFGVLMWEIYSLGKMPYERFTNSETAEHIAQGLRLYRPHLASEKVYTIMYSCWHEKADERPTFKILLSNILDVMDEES
Experiment [4] concerns the target T3, Cytoplasmic tyrosine-protein kinase BMX (Homo sapiens, UniProt P51813).
T3 sequence (P51813 whole entry): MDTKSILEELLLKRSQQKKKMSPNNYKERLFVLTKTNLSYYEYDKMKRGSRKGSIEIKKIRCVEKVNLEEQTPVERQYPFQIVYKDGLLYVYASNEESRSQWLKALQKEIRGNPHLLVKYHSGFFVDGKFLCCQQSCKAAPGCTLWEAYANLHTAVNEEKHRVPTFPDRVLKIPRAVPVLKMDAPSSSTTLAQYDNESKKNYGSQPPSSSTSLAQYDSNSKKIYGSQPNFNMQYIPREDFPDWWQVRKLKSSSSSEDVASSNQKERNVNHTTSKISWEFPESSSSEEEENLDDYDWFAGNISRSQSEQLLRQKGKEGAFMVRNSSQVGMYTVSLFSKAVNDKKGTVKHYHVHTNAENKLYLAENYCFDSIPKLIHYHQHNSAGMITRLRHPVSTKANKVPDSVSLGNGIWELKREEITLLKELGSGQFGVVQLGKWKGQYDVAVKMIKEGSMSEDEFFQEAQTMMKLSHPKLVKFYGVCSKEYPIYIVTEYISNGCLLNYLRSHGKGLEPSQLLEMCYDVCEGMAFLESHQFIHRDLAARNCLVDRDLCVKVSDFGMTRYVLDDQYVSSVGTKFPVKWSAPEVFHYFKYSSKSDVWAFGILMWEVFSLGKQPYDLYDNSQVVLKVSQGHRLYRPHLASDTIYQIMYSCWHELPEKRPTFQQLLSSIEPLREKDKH
In words: Inhibition of Bmx (unknown origin) using GST-SLP-76 as peptide substrate incubated for 10 mins in presence of [gamma-33P]ATP by scintillation counter assay.

For experiment [5], the target named is Tyrosine-protein kinase Lck (Homo sapiens, UniProt P06239). In words: Inhibition of Lck (unknown origin) using GST-SLP-76 as peptide substrate incubated for 10 mins in presence of [gamma-33P]ATP by scintillation counter assay.
Tyrosine-protein kinase Lck, sequence (P06239 whole entry): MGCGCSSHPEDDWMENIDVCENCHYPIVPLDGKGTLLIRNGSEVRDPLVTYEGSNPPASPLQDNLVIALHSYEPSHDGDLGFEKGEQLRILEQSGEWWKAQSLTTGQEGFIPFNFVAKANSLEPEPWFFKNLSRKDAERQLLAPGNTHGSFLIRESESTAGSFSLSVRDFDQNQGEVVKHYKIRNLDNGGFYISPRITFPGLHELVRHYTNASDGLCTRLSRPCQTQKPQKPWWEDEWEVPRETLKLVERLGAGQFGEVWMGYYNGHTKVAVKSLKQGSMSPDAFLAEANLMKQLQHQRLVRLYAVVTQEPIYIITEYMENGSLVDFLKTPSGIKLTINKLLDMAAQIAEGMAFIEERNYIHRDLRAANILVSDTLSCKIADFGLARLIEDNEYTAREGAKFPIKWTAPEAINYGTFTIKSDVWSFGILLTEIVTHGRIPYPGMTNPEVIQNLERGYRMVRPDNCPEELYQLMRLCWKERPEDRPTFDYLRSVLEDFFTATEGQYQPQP
For experiment [6], the target named is Tyrosine-protein kinase SYK (Homo sapiens, UniProt P43405). In words: Inhibition of Syk (unknown origin) using GST-SLP-76 as peptide substrate incubated for 10 mins in presence of [gamma-33P]ATP by scintillation counter assay.
Experiment [7] has as its target T4, Tyrosine-protein kinase ZAP-70 (Homo sapiens, UniProt P43403).
T4 sequence (P43403 whole entry): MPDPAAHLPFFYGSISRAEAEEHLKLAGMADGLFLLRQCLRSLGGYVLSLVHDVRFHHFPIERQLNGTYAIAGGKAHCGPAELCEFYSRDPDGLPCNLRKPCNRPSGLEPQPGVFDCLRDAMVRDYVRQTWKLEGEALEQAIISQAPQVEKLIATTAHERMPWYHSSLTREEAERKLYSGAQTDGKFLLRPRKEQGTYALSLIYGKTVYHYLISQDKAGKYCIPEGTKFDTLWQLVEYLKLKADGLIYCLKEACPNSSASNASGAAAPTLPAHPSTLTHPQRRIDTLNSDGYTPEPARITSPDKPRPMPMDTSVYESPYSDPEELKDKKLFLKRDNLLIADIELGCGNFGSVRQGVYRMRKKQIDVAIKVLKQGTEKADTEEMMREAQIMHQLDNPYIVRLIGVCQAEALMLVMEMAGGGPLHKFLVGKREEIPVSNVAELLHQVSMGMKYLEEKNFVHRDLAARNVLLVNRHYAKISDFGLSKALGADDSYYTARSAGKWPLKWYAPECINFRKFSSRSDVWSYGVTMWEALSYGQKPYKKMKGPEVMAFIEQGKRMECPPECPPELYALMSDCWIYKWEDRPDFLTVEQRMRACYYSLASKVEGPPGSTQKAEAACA
In words: Inhibition of ZAP-70 (unknown origin) using GST-SLP-76 as peptide substrate incubated for 10 mins in presence of [gamma-33P]ATP by scintillation counter assay.

The target of experiment [8] is Epidermal growth factor receptor (Homo sapiens, UniProt P00533). The experiment can be described thus: Inhibition of EGFR (unknown origin) using GST-SLP-76 as peptide substrate incubated for 10 mins in presence of [gamma-33P]ATP by scintillation counter assay.
Epidermal growth factor receptor, sequence (P00533 whole entry): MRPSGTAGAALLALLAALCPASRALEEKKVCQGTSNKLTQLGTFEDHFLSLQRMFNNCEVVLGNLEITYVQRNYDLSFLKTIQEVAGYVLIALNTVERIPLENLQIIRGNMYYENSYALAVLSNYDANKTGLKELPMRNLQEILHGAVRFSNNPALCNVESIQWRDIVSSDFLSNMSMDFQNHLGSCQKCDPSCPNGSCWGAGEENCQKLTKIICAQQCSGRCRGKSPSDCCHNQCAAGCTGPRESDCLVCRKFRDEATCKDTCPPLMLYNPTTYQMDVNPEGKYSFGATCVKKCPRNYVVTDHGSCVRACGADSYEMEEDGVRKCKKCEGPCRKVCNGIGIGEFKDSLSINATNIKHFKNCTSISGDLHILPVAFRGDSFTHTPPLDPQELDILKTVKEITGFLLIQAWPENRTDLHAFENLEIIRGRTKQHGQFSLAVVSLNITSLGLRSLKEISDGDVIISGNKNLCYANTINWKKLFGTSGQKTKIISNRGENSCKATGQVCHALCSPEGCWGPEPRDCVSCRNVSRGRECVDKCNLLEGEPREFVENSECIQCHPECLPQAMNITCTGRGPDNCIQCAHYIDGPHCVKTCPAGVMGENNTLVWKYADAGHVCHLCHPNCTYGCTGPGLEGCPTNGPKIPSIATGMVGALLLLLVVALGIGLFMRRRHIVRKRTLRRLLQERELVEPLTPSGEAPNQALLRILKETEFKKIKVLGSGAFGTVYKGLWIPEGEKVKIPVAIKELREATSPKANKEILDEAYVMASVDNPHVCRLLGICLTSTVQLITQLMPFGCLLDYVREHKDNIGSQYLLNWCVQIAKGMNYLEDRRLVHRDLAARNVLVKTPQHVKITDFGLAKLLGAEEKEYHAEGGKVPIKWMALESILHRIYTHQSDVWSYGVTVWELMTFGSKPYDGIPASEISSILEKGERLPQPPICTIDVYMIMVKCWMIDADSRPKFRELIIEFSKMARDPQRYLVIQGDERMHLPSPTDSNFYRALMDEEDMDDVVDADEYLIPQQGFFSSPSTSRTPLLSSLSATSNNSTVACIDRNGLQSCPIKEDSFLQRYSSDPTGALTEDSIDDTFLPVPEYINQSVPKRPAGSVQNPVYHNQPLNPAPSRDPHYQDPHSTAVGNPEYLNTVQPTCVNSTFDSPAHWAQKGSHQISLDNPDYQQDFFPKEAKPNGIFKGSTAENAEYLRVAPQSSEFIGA
Experiment [9] addresses Cyclin-dependent kinase 2 (Homo sapiens, UniProt P24941). The experiment can be described thus: Inhibition of Cdk2 (unknown origin) using GST-SLP-76 as peptide substrate incubated for 10 mins in presence of [gamma-33P]ATP by scintillation counter assay.
Experiment [10] concerns the target Mitogen-activated protein kinase 3 (Homo sapiens, UniProt P27361). In words: Inhibition of ERK-1 (unknown origin) using GST-SLP-76 as peptide substrate incubated for 10 mins in presence of [gamma-33P]ATP by scintillation counter assay.
Experiment [11] concerns the target cAMP-dependent protein kinase (PKA) (Homo sapiens, UniProt P22694+P17612+P22612). The experiment can be described thus: Inhibition of PKA (unknown origin) using GST-SLP-76 as peptide substrate incubated for 10 mins in presence of [gamma-33P]ATP by scintillation counter assay. It counts as protein assay.
In experiment [12] the target is Protein kinase C (PKC). The experiment can be described thus: Inhibition of PKC (unknown origin) using GST-SLP-76 as peptide substrate incubated for 10 mins in presence of [gamma-33P]ATP by scintillation counter assay. It counts as protein assay, Homo sapiens.

Mitogen-activated protein kinase 3, sequence (P27361 whole entry): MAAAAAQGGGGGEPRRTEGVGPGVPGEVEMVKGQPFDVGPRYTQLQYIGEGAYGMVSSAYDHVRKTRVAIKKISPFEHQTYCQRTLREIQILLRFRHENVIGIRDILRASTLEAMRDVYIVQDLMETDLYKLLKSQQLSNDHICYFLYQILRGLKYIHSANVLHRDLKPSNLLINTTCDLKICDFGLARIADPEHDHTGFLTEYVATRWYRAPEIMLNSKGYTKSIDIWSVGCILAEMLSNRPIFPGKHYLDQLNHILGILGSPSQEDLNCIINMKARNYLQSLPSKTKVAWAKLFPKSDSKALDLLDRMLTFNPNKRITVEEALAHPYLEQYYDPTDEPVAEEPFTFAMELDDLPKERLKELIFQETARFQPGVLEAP

For the compound `CC(=O)N1CCN(C(=O)c2cccc(CSc3cnc(NC(=O)c4ccc(N(C)C)cc4)s3)c2)CC1`, the pIC50 in experiment [1] is below 4.30; in [2] it was below 4.30; in [3] it was 4.31; in experiment [4], 4.70; in experiment [5], below 4.60; in experiment [6], below 4.30. Further, the pIC50 in experiment [7] was below 4.30; in experiment [8], below 4.30; in experiment [9] it was 4.57; in experiment [10] it was below 4.30. In addition, the IC50 in [11] and in [12] was above 50 µM each time.

For orientation: pIC50 means −log10 of the IC50, conventionally taken in molar units. As usually defined, the IC50 is the concentration needed to halve the response being measured.
